Measurements published in ChEMBL document CHEMBL6115011, “Optimizing biofilm inhibitors: Balancing activity and toxicity in 2N-aminated 5-aryl-2-aminoimidazoles” (Bioorg Med Chem, 2025).

How the values were obtained:
Staphylococcus aureus [1] = assay: Inhibition of biofilm formation in methicillin-resistant Staphylococcus aureus at 25 degree C measured after 48 hrs by crystal violet staining based analysis; format: functional, organism-based
Staphylococcus aureus [2] = assay: Antibacterial activity against Staphylococcus aureus SH1000 at 25 degree C measured after 48 hrs by crystal violet staining based microplate reader analysis; format: functional, organism-based; conditions: SH1000, 48 h
[3] = Cytotoxicity against human PBMC cells assessed as survival rate at 25 uM measured after 72 hrs by trypan blue staining based assay relative to control; format: toxicity, cell-based; conditions: read-out: Survival
HL-60 = assay: Cytotoxicity against human HL-60 cells assessed as inhibition of cell growth measured after 72 hrs by CellTiter 96 Aqueous One Solution Cell Proliferation Assay; format: functional
LN-229 = assay: Cytotoxicity against human LN-229 cells assessed as inhibition of cell growth measured after 72 hrs by CellTiter 96 Aqueous One Solution Cell Proliferation Assay; format: functional
[4] = tested on: Staphylococcus epidermidis; assay: Inhibition of biofilm formation in Staphylococcus epidermidis at 25 degree C measured after 48 hrs by crystal violet staining based analysis; format: functional, organism-based
[5] = Cytotoxicity against human PBMC cells assessed as survival rate at 100 uM measured after 72 hrs by trypan blue staining based assay relative to control; format: toxicity, cell-based; conditions: read-out: Survival
Escherichia coli [6] = assay: Inhibition of biofilm formation in Escherichia coli TG1 at 25 degree C measured after 24 hrs by crystal violet staining based microplate reader analysis; format: functional, organism-based; conditions: TG1, 24 h
Z-138 = assay: Cytotoxicity against human Z138 cells assessed as inhibition of cell growth measured after 72 hrs by CellTiter 96 Aqueous One Solution Cell Proliferation Assay; format: functional
[7] = Toxicity in Caenorhabditis elegans CB5612 by wide field microscopy based analysis
Pseudomonas aeruginosa [8] = assay: Inhibition of biofilm formation in Pseudomonas aeruginosa PA14 at 25 degree C measured after 24 hrs by crystal violet staining based analysis; format: functional, organism-based; conditions: PA14, 24 h
CAPAN-1 = assay: Cytotoxicity against human CAPAN-1 cells assessed as inhibition of cell growth measured after 72 hrs by CellTiter 96 Aqueous One Solution Cell Proliferation Assay; format: functional
[9] = Cytotoxicity against human PBMC cells assessed as survival rate at 400 uM measured after 72 hrs by trypan blue staining based assay relative to control; format: toxicity, cell-based; conditions: read-out: Survival
Staphylococcus aureus [10] = assay: Antibacterial activity against methicillin-resistant Staphylococcus aureus at 25 degree C measured after 48 hrs by crystal violet staining based microplate reader analysis; format: functional, organism-based
Pseudomonas aeruginosa [11] = assay: Antibacterial activity against Pseudomonas aeruginosa PA14 at 25 degree C measured after 24 hrs by crystal violet staining based microplate reader analysis; format: functional, organism-based; conditions: PA14, 24 h
K562 = assay: Cytotoxicity against human K562 cells assessed as inhibition of cell growth measured after 72 hrs by CellTiter 96 Aqueous One Solution Cell Proliferation Assay; format: functional
Escherichia coli [12] = assay: Antibacterial activity against Escherichia coli TG1 at 25 degree C measured after 24 hrs by crystal violet staining based microplate reader analysis; format: functional, organism-based; conditions: TG1, 24 h
NCI-H460 = assay: Cytotoxicity against human NCI-H460 cells assessed as inhibition of cell growth measured after 72 hrs by CellTiter 96 Aqueous One Solution Cell Proliferation Assay; format: functional
Staphylococcus aureus [13] = assay: Inhibition of biofilm formation in Staphylococcus aureus SH1000 at 25 degree C measured after 48 hrs by crystal violet staining based analysis; format: functional, organism-based; conditions: SH1000, 48 h
[14] = Genotoxicity in human CAPAN-1 cells assessed as fold change at 100 uM measured after 3 hrs by Western blot analysis; format: toxicity, cell-based; conditions: capan-1, 3 h
[15] = Genotoxicity in human CAPAN-1 cells assessed as fold change at 400 uM measured after 3 hrs by Western blot analysis; format: toxicity, cell-based; conditions: capan-1, 3 h
[16] = tested on: Staphylococcus epidermidis; assay: Antibacterial activity against Staphylococcus epidermidis at 25 degree C measured after 48 hrs by crystal violet staining based microplate reader analysis; format: functional, organism-based
HCT-116 = assay: Cytotoxicity against human HCT-116 cells assessed as inhibition of cell growth measured after 72 hrs by CellTiter 96 Aqueous One Solution Cell Proliferation Assay; format: functional
[17] = Toxicity in Caenorhabditis elegans CB5612 assessed as increase in food depletion delay by wide field microscopy based analysis
[18] = Genotoxicity in human CAPAN-1 cells at 100 to 400 uM measured after 3 hrs by Western blot analysis; format: toxicity, cell-based; conditions: capan-1, 3 h, dose 100-400 µM
[19] = Cytotoxicity against human DND41 cells assessed as inhibition of cell growth measured after 72 hrs by CellTiter 96 Aqueous One Solution Cell Proliferation Assay; format: functional

Row | SMILES | IC50 (Staphylococcus aureus [1]) [µM] | IC50 (Staphylococcus aureus [2]) [µM] | CC50 (HL-60) [µM] | CC50 (LN-229; Homo sapiens, LN-229, 72 h) [µM] | IC50 [4] [µM] | viability at 72 h, 100 µM [5] [%] | IC50 (Escherichia coli [6]) [µM] | IC50 (Pseudomonas aeruginosa [8]) [µM] | CC50 (CAPAN-1) [µM] | IC50 (Staphylococcus aureus [10]) [µM] | IC50 (Pseudomonas aeruginosa [11]) [µM] | IC50 (Escherichia coli [12]) [µM] | CC50 (NCI-H460) [µM] | IC50 (Staphylococcus aureus [13]) [µM] | fold change (FC) [15] | IC50 [16] [µM] | also measured
1 | NCCCCCCCCNc1ncc(-c2ccc(Br)cc2)[nH]1 | 26.3 | 36.7 | 30 | 30 | 12.6 | 94 | 6.8 | 7.8 | 30 | 61.8 | 14.5 | 17.6 | 30 | 46.1 |  |  | viability at 72 h, 25 µM [3]: 79.8%; CC50 (Z-138; Homo sapiens, Z-138, 72 h): 30 µM; Activity [7]: Toxic; viability at 72 h, 400 µM [9]: 30.2%; CC50 (K562; Homo sapiens, K562, 72 h): 30 µM
2 | COc1cc([C@@H]2c3cc4c(cc3[C@@H](O[C@@H]3O[C@@H]5CO[C@@H](C)O[C@H]5[C@H](O)[C@H]3O)[C@H]3COC(=O)[C@H]23)OCO4)cc(OC)c1O [ETOPOSIDE] |  |  |  |  |  | 71 |  |  |  |  |  |  |  |  | > 8 |  | viability at 72 h, 25 µM [3]: < 67%; viability at 72 h, 400 µM [9]: 38%; fold change (FC) [14]: 10
3 | NCCCCCCNc1ncc(-c2ccc(Br)cc2)[nH]1 | 60 | 38.6 |  | 40 | 35.3 |  | 14.2 | 11.2 | 40 | 106 | 27.4 | 21 | 40 | 59.6 | 5.75 | 85.2 | CC50 (HCT-116): 40 µM; fold change (FC) [14]: 2.3; Time [17]: 0.66 days
4 | NCCCCCCCCCCNc1ncc(-c2ccccc2)[nH]1 | 19.8 | 15.3 | 47.1 |  | 8.2 |  | 18.6 | 16.8 |  | 23.8 | 60.7 | 17.8 |  | 24.9 | 2 | 25.7 | CC50 (HCT-116): 46.9 µM
5 | CCCCCCCCn1c(-c2ccc(Br)cc2)cnc1NC1CCCC1 |  | 33.1 |  |  |  |  | 14 | > 800 |  |  | 25.2 | 25.7 |  | 63.2 |  |  | 
6 | CCCCCCNc1ncc(-c2ccc(Cl)cc2)[nH]1 |  | 186 |  |  |  |  | 11.3 | 40.6 |  |  | 38.7 | 21.8 |  | 141 |  |  | 
7 | NCCCCCCCNc1ncc(-c2ccccc2)[nH]1 | 48.9 | 106 |  |  | 12.3 |  | 17.3 | 12.4 | 41.1 | 72.6 | 33.3 | 39.7 | 68.8 | 64.7 |  |  | Activity [18]: Non-toxic
8 | CCCCCCCCNc1ncc(-c2ccc(Cl)cc2)[nH]1 |  | 84.4 |  |  |  |  | 8.42 | > 200 |  |  | 70.2 | 72.3 |  | 43.1 |  |  | 
9 | NCCCCCCCCNc1ncc(-c2ccccc2)[nH]1 | 35.3 | 40.6 | 30 | 52.9 | 3.5 | < 50 | 13.5 | 12.7 | 30 | 45.4 | 21.1 | 15.6 | 30 | 21.1 |  | 20.4 | CC50 (LN-229; 72 h): 30 µM; CC50 (Z-138; 72 h): 30 µM; CC50 (Z-138; Homo sapiens, Z-138, 72 h): 49.7 µM; Activity [18]: Non-toxic; CC50 [19]: 58.3 µM; CC50 (K562; 72 h): 30 µM; CC50 (K562; Homo sapiens, K562, 72 h): 57.4 µM
10 | OB(O)O [BORIC ACID] |  |  |  |  |  |  |  |  |  |  |  |  |  |  |  |  | Time [17]: > 10 days
